{"source": "patent US8420696B2", "about": "“Use of low-dose ladostigil for neuroprotection” (priority 2005, dated 2013)", "target": "T1, butyrylcholinesterase (BuChE) (Rattus norvegicus, UniProt Q9JKC1)", "T1 construct": "from tissue; host or cells: cortex and hippocampus homogenates of dosed Sprague-Dawley rats", "T1 sequence (Q9JKC1 24-597)": "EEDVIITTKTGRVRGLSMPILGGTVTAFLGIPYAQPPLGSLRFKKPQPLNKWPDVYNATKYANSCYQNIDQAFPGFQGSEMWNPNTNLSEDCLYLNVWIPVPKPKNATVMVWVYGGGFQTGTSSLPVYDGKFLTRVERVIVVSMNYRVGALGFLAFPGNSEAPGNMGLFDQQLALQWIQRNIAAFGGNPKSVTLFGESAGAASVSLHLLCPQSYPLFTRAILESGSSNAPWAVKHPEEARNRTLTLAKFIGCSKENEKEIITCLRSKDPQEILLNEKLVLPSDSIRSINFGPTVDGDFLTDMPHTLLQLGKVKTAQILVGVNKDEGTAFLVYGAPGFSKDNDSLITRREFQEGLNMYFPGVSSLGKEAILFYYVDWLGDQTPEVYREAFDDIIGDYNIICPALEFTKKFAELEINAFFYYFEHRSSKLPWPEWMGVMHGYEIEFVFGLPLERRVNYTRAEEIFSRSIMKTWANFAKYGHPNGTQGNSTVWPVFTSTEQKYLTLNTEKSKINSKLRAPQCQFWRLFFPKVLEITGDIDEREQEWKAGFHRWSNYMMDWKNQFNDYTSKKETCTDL", "test": "Example 2: BuChE activity in cortex and hippocampus after ladostigil treatment", "type": "in vivo, rats", "settings": "chronic 1 mg/kg", "procedure": "The effect of chronic ladostigil treatment on ChE activity in the cortex and hippocampus of rats was determined one week after icv STZ in 12 rats (3 treated with water and 9 with ladostigil). The effect of acute treatment with ladostigil 1 or 17 mg/kg was determined 2 hrs after drug administration. […] The brain was rapidly removed, washed with saline on ice and the cortex, hippocampus and striatum dissected out, quickly weighed and stored at −70° C. until assay. Total ChE activity in the cortex and hippocampus was measured as described in Wang et al., Gender differences in the effect of rivastigmine on brain cholinesterase activity and cognitive function in rats, Neuropharmacology (2000) 39:497-506, using the spectrophotometric method of Ellman et al., A new and rapid colorimetric determination of acetylcholinesterase activity, Biochem. Pharmacol. (1961) 7:88-95 with acetylthiocholine (Sigma Ltd) as a substrate using homogenate of 100 mg tissue in 1 ml phosphate buffer. To determine only butyrylcholinesterase (BuChE) activity the amounts of tissue/ml of buffer were increased 3-fold and butyrylthiocholine (Sigma Ltd) was used as a substrate. MAO A and B activity was measured in homogenates of striatum as described in Weinstock et al., Limited potentiation of blood pressure response to oral tyramine by brain-selective monoamine oxidase A-B inhibitor, TV-3326 in conscious rabbits, Neuropharmacology (2002) 43:999-1005.", "data": [{"smiles": "C#CCN[C@@H]1CCc2ccc(OC(=O)N(C)CC)cc21", "note": "[ladostigil, R(+)-6-(N-methyl,N-ethyl-carbamoyloxy)-N′-propargyl-1-aminoindan]", "values": [{"measurement": "BuChE (%) inhibition", "setting": "Cortex, 60 min", "result": "16.2 ± 2.5", "unit": "%"}, {"measurement": "BuChE (%) inhibition", "setting": "Cortex, 120 min", "result": "15.7 ± 3.2", "unit": "%"}, {"measurement": "BuChE (%) inhibition", "setting": "Hippocampus, 60 min", "result": "7.3 ± 2.5", "unit": "%"}, {"measurement": "BuChE (%) inhibition", "setting": "Hippocampus, 120 min", "result": "5.4 ± 2.8", "unit": "%"}, {"measurement": "Inhibition of BuChE in the hippocampus", "result": "no significant inhibition"}, {"measurement": "Inhibition of BuChE in the cortex", "setting": "seven days after icv STZ, 1 or 2 hrs after the last dose", "result": 16, "unit": "%"}]}]}
